Assay results reported in ChEMBL document CHEMBL4270560, “Novel curcumin analogue hybrids: Synthesis and anticancer activity” (Eur J Med Chem, 2018).
Activity calls are given as the source filed them. The calls are words filed in the database; no cut-off is given here.

Key:
[1] = system: SGC-7901; assay: Induction of apoptosis in human SGC7901 cells assessed as viable cells at 1000 nM after 48 hrs in presence of NAC by Annexin V-FITC/propidium iodide staining based flow cytometric analysis (reference value: 96%); format: functional; settings: SGC-7901, 48 h, read-out: Activity
[2] = system: SGC-7901; assay: Induction of mitochondrial membrane depolarization in human SGC7901 cells assessed as cells with intact mitochondrial membrane potential at 1200 nM after 48 hrs in presence of NAC by JC-1 staining based flow cytometric analysis (reference value: 98%); format: functional
[3] = system: SGC-7901; assay: Induction of apoptosis in human SGC7901 cells assessed as late apoptotic cells at 1000 nM after 48 hrs by Annexin V-FITC/propidium iodide staining based flow cytometric analysis (reference value: 1.73 to 2.85%); format: functional
[4] = system: SGC-7901; assay: Induction of apoptosis in human SGC7901 cells assessed as viable cells at 1000 nM after 48 hrs by Annexin V-FITC/propidium iodide staining based flow cytometric analysis (reference value: 95.9 to 96%); format: functional; settings: SGC-7901, 48 h, read-out: Activity
[5] = system: SGC-7901; assay: Induction of apoptosis in human SGC7901 cells assessed as increase in Bax to Bcl-2 ratio level at 1200 nM after 48 hrs in presence of NAC by Western blot analysis; format: functional, cell-based

COc1cc(OC)c2c(=O)c(OCCCOc3ccccc3/C=C/C(=O)/C=C/c3ccccn3)c(-c3cc(OC)c(OC)c(OC)c3)oc2c1
viability at 1 µM [1]: 94.1% | Activity [2]: 97.5% | Activity [3]: 7.92 - 24.2% | viability at 1 µM [4]: 50.1 to 59.6% | Activity [5]: inactive
